The nature of data set [1]: Bioactive Agent Release Assay, β-estradiol from coated stents. The data set is classed as physicochemical. As to conditions: pEVA/pBMA 14/86% (w/w), coated at 0, 20, 30 or 40% relative humidity at 22° C.; PBS, 37° C.; FIG. 3. As for the experimental part:
A polymer coating solution containing poly(ethylene-co-vinylacetate) with a vinyl acetate concentration of 33% (w/w) and poly(n-butyl methacrylate) was prepared in 5 tetrahydrofuran at a polymer ratio of 14/86% (w/w), respectively. β-estradiol was added to the polymer coating solution after dissolution of the polymer in order to provide a coating composition of Applicant's above-captioned copending application in the form a one part system The bioactive agent/polymer ratio of the β-estradiol containing polymer solution was 30/70% (w/w) at a concentration of 10 mg/ml.
Eighteen-millimeter long, electropolished stainless steel stents with a 2 mm outer diameter were fabricated (Laserage Technology Corporation, Waukegan Ill.). […]
A suitable Bioactive Agent Release Assay, as described herein, can be used to determine the extent and rate of bioactive agent release under physiological conditions. In general it is desirable that less that 50% of the total quantity of the bioactive agent be released in the first 24 hours. It is frequently desirable for quantities of bioactive agent to be released for a duration of at least 30 days.
Except as otherwise provided herein, each coated stent was placed in an amber vial with 1.6 mls of PBS. […] The concentration of β-estradiol in each PBS sample was determined using UV spectroscopy.

The nature of data set [2]: Bioactive Agent Release Assay, dextran-TRITC from coated discs with polymer topcoat. It is filed as physicochemical. As to conditions: pEVA (33% vinyl acetate)/pBMA topcoat coated at 48% relative humidity compared with 10% relative humidity; PBS, 37° C.; FIG. 2. As for the experimental part:
Two solutions were prepared in order to provide a coating composition of Applicant's copending application in the form of a two part system. The first solution was an aqueous solution containing the bioactive agent, dextran-TRITC, at a concentration of 15 mg/ml. The second solution contained poly(ethylene-co-vinylacetate) with a vinyl acetate concentration of 33% (w/w) and poly(n-butyl methacrylate), with approximate weight average molecular weight of 337 kilodaltons. The poly(n-butyl methacrylate) and poly(ethylene-co-vinylacetate) were purified by extraction with organic solvents to remove impurities, e.g., monomer residues. The polymers of the second solution were dissolved in tetrahydrofuran at a concentration of 10 mg/ml. […]
A suitable Bioactive Agent Release Assay, as describe herein, can be used to determine the extent and rate of bioactive agent release under physiological conditions. In general it is desirable that less than 50% of the total quantity of the bioactive agent be released in the first 24 hours. It is frequently desirable for quantities of bioactive agent to be released for a duration of at least 30 days.
Except as otherwise provided herein, each coated disc was placed in an amber vial with 4 mls of PBS. […] The concentration of bioactive agent in each PBS sample was determined using UV spectroscopy. […]

Regarding `C[C@]12CC[C@@H]3c4ccc(O)cc4CC[C@H]3[C@@H]1CC[C@@H]2O` [β-estradiol], the “β-estradiol rate of release from coating” value in data set [1] was “different humidity level conditions can be used to control the β-estradiol rate of release”. As to “tetramethylrhodamine isothiocyanate-Dextran [dextran-TRITC]”, in data set [2], the “release rate of bioactive agent from composite coating” value is on record as “faster rate”.

Source of the values: patent US20030232087A1, “Bioactive agent release coating with aromatic poly(meth)acrylates” (priority 2002, published 2003).
